Assay results: patent US10081561B2, “Reduction of hydrogen sulfide and/or malodor gassing from water via the addition of peroxyacetic acid/hydrogen peroxide product” (priority 2013, dated 2018)

System: aerobe population and SRP population
Test: PAA demand study, assumed microbial kill efficiency (FIG. 2)
Assay type: cell-based
Settings: assumed for FIG. 2
From the text: Referring now to FIG. 2 there is shown a graph of one such example. If we assume that in a given system the aerobe population is 1,000,000 per mL and the SRP population is 100,000 per mL and we perform a PAA demand study to understand the microbial kill efficiency we can then determine how much PAA to add to minimize the SRP population without killing so many aerobes that it is detrimental to the waste water plant. This graph assumes that reduction after treatment may be something like: 50% reduction with a 20 ppm PAA treatment, 90% reduction with a 40 ppm treatment, and 99% reduction with a 60 ppm treatment. The goal of treatment would be to suppress the SPR population as much as possible while still allowing a sufficient number of aerobes to survive and move into the waste process.

Q: What does the source list for `CC(=O)OO` [PAA, peroxyacetic acid]?
A: reduction after treatment (20 ppm PAA treatment): ~50%; reduction after treatment (40 ppm treatment): ~90%; reduction after treatment (60 ppm treatment): ~99%
